Assay results as given in patent US10758534B2 (Vertex Pharmaceuticals Incorporated, priority 2014, dated 2020).
Like-named read-outs stand apart in the source and are kept apart here.

Biological target: T1, F508del (Homo sapiens, UniProt P13569, DEL508-508)
T1 construct: expressed in transfected cells
Test: Protocol 2: FRET membrane potential optical assay (VIPR), identification of correction compounds
Format: cell-based
How it was run: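 Correction of the F508del trafficking defect is scored as forskolin (10 μM)/genistein (20 μM)-stimulated Cl^− efflux in NIH3T3 mouse fibroblasts after a 16 hr, 37° C. compound exposure. Depolarization was followed optically using voltage-sensing FRET dyes.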

[1] = F508del CFTR modulator activity, compounds of Table 1, read-out: EC30
[2] = Table 3, compounds of Table 1 as modulators of CFTR activity, protocol not stated

T1 sequence (P13569 with tags, fused parts or gaps DEL508-508): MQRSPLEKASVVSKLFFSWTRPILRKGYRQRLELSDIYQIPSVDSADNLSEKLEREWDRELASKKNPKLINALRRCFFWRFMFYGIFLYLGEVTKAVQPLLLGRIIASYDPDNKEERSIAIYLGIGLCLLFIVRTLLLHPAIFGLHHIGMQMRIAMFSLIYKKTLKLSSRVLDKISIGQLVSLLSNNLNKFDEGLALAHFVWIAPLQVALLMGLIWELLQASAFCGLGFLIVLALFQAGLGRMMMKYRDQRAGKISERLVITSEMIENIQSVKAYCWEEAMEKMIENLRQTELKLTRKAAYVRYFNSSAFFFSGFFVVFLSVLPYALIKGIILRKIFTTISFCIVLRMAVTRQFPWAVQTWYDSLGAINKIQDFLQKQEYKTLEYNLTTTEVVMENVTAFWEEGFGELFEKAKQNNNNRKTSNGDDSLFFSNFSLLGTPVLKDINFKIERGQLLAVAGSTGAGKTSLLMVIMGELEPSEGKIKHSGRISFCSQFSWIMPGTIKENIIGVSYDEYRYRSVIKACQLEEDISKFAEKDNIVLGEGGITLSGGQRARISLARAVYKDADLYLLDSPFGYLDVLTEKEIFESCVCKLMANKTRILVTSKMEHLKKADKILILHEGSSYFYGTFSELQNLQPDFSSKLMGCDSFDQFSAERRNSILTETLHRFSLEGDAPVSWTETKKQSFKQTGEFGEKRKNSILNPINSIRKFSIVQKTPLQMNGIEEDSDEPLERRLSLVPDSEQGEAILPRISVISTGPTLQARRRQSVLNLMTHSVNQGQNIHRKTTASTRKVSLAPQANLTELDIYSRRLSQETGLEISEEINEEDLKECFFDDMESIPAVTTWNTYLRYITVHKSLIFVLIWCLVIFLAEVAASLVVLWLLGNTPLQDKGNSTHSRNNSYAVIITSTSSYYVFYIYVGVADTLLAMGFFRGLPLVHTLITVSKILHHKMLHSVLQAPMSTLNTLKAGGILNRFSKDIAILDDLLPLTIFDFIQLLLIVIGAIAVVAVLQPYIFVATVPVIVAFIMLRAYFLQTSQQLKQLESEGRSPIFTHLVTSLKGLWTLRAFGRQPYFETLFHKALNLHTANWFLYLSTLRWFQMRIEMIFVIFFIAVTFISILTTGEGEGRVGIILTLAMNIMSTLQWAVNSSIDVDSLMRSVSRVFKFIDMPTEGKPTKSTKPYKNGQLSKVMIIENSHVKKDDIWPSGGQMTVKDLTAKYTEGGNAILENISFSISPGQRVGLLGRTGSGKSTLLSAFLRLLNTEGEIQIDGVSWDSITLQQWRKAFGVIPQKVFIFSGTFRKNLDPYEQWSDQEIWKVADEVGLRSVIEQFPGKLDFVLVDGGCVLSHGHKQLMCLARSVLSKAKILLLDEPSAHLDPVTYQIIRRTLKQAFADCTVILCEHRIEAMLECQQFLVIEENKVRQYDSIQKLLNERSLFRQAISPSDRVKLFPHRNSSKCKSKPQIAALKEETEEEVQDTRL

Row | SMILES | EC30 [1] [µM] | EC30 [2]
1 | CC1CN(c2ncccc2C(=O)NS(=O)(=O)c2cccc(OC3CCC3)n2)C(C)(C)C1 (stereo not shown) [Compound 2371, N—[[6-(cyclobutoxy)-2-pyridyl]sulfonyl]-2-(2,2,4-trimethylpyrrolidin-1-yl)pyridine-3-carboxamide] | < 3 | 
2 | Cc1cc(C)c(Oc2nc(-n3ccc(C(F)(F)F)n3)ccc2C(=O)NS(=O)(=O)c2cccc(N)n2)c(C)c1 [Compound 676, N-[(6-amino-2-pyridyl)sulfonyl]-6-[3-(trifluoromethyl)pyrazol-1-yl]-2-(2,4,6-trimethylphenoxy)pyridine-3-carboxamide] |  | +++ (“+++” means <3 uM)
3 | Cc1ccccc1C(C)Oc1nc(-c2cc(F)cc(OCC(C)C)c2)ccc1C(=O)NS(=O)(=O)c1cccc(N)n1 (stereo not shown) [Compound 782, N-[(6-amino-2-pyridyl)sulfonyl]-6-(3-fluoro-5-isobutoxy-phenyl)-2-[1-(o-tolyl)ethoxy]pyridine-3-carboxamide] |  | +++ (“+++” means <3 uM)
4 | C[C@@H]1CN(c2nc(-c3cccc(F)c3)ccc2C(=O)NS(=O)(=O)N2CC[C@H](N)C2)C(C)(C)C1 [Compound 2414, N-[(3S)-3-aminopyrrolidin-1-yl]sulfonyl-6-(3-fluorophenyl)-2-[(4S)-2,2,4-trimethylpyrrolidin-1-yl]pyridine-3-carboxamide] | 3 to 10 | 
5 | Nc1cccc(S(=O)(=O)NC(=O)c2cccnc2NC2CCCCC2C2CCCCC2)n1 (stereo not shown) [Compound 2599, N-[(6-amino-2-pyridyl)sulfonyl]-2-[(2-cyclohexylcyclohexyl)amino]pyridine-3-carboxamide] | 3 to 10 | 
6 | Cc1cc(C)c(Cn2nc(OCc3ccccc3)cc2C(=O)NS(=O)(=O)c2cccc(N)c2)c(C)c1 [Compound 42, N-(3-aminophenyl)sulfonyl-5-benzyloxy-2-[(2,4,6-trimethylphenyl)methyl]pyrazole-3-carboxamide] |  | ++ (“++” means between 3 uM and 10 uM)
7 | CC(C)COc1ccc(F)c(-c2ccc(C(=O)NS(=O)(=O)c3ccn[nH]3)c(N3[C@H](C)CC[C@@H]3C)n2)c1 [Compound 681, 2-[(2S,5R)-2,5-dimethylpyrrolidin-1-yl]-6-(2-fluoro-5-isobutoxy-phenyl)-N-(1H-pyrazol-5-ylsulfonyl)pyridine-3-carboxamide] |  | +++ (“+++” means <3 uM)
8 | CC1CN(c2ncccc2C(=O)NS(=O)(=O)c2cccc(OCc3ccc(C(C)(C)C)cc3)n2)C(C)(C)C1 (stereo not shown) [Compound 2286, N—[[6-[(4-tert-butylphenyl)methoxy]-2-pyridyl]sulfonyl]-2-(2,2,4-trimethylpyrrolidin-1-yl)pyridine-3-carboxamide] | < 3 | 
9 | CC(C)Oc1ccc(-c2ccc(C(=O)NS(=O)(=O)c3ccn[nH]3)c(N3C[C@H](C)C[C@H](C)C3)n2)cn1 [Compound 446, 2-[(3R,5S)-3,5-dimethyl-1-piperidyl]-6-(6-isopropoxy-3-pyridyl)-N-(1H-pyrazol-5-ylsulfonyl)pyridine-3-carboxamide] |  | +++ (“+++” means <3 uM)
10 | Cc1cc(C)c(CN2Cc3c(C(C)C)cccc3C2C(=O)NS(=O)(=O)c2cccc(N)c2)c(C)c1 (stereo not shown) [Compound 299, N-(3-aminophenyl)sulfonyl-4-isopropyl-2-[(2,4,6-trimethylphenyl)methyl]isoindoline-1-carboxamide] |  | +++ (“+++” means <3 uM)
11 | CC(C)COc1cc(F)cc(-c2ccc(C(=O)NS(=O)(=O)c3cccc(N)n3)c(N3CCCC(C4CC4)C3)n2)c1 (stereo not shown) [Compound 655, N-[(6-amino-2-pyridyl)sulfonyl]-2-(3-cyclopropyl-1-piperidyl)-6-(3-fluoro-5-isobutoxy-phenyl)pyridine-3-carboxamide] |  | +++ (“+++” means <3 uM)
12 | CC(C)(C)c1ccc(C(=O)NS(=O)(=O)c2cccc(N)c2)c(-c2ccc(Cl)cc2)n1 [Compound 223, N-(3-aminophenyl)sulfonyl-6-tert-butyl-2-(4-chlorophenyl)pyridine-3-carboxamide] |  | +++ (“+++” means <3 uM)
13 | Cc1cc(C)c(Cn2nc(C(C)(C)C)c(C)c2C(=O)NS(=O)(=O)c2cccc(N)c2)c(C)c1 [Compound 20, N-(3-aminophenyl)sulfonyl-5-tert-butyl-4-methyl-2-[(2,4,6-trimethylphenyl)methyl]pyrazole-3-carboxamide] |  | +++ (“+++” means <3 uM)
14 | CC1CN(c2ncccc2C(=O)NS(=O)(=O)c2cccc(Oc3ccccc3F)n2)C(C)(C)C1 (stereo not shown) [Compound 2015, N—[[6-(2-fluorophenoxy)-2-pyridyl]sulfonyl]-2-(2,2,4-trimethylpyrrolidin-1-yl)pyridine-3-carboxamide] | < 3 | 
15 | CC(C)COc1cc(F)cc(-c2ccc(C(=O)NS(=O)(=O)c3cccnc3)c(N3C[C@@H](C)CC3(C)C)n2)c1 [Compound 2377, 6-(3-fluoro-5-isobutoxy-phenyl)-N-(3-pyridylsulfonyl)-2-[(4S)-2,2,4-trimethylpyrrolidin-1-yl]pyridine-3-carboxamide] | < 3 | 
16 | Cc1ccc(-c2nc(C(C)(C)C)ccc2C(=O)NS(=O)(=O)c2ccccc2C#N)cc1 [Compound 623, 6-tert-butyl-N-(2-cyanophenyl)sulfonyl-2-(p-tolyl)pyridine-3-carboxamide] |  | ++ (“++” means between 3 uM and 10 uM)
17 | Cc1cc(C)c(Cn2c(C(=O)NS(=O)(=O)c3ccncc3)cc3ccc(C)cc32)c(C)c1 [Compound 38, 6-methyl-N-(4-pyridylsulfonyl)-1-[(2,4,6-trimethylphenyl)methyl]indole-2-carboxamide] |  | +++ (“+++” means <3 uM)
18 | CC1CN(c2ncccc2C(=O)NS(=O)(=O)c2cccc(NCc3ccco3)n2)C(C)(C)C1 (stereo not shown) [Compound 2597, N—[[6-(2-furylmethylamino)-2-pyridyl]sulfonyl]-2-(2,2,4-trimethylpyrrolidin-1-yl)pyridine-3-carboxamide] | 3 to 10 | 
19 | COc1cccc(S(=O)(=O)NC(=O)c2cc3ccccc3n2Cc2c(C)cc(C)cc2C)n1 [Compound 253, N-[(6-methoxy-2-pyridyl)sulfonyl]-1-[(2,4,6-trimethylphenyl)methyl]indole-2-carboxamide] |  | +++ (“+++” means <3 uM)
20 | CC1CN(c2ncccc2C(=O)NS(=O)(=O)c2cccc(N3CCC(F)CC3)n2)C(C)(C)C1 (stereo not shown) [Compound 2453, N—[[6-(4-fluoro-1-piperidyl)-2-pyridyl]sulfonyl]-2-(2,2,4-trimethylpyrrolidin-1-yl)pyridine-3-carboxamide] | < 3 | 
21 | CC1CN(c2ncccc2C(=O)NS(=O)(=O)c2cccc(Nc3cccc(C#N)c3)n2)C(C)(C)C1 (stereo not shown) [Compound 2484, N—[[6-(3-cyanoanilino)-2-pyridyl]sulfonyl]-2-(2,2,4-trimethylpyrrolidin-1-yl)pyridine-3-carboxamide] | < 3 | 

Continued, values first:

Row | EC30 [1] [µM] | EC30 [2] | SMILES
22 |  | ++ (“++” means between 3 uM and 10 uM) | Cc1cc(C)c(Cn2c(C(=O)NS(=O)(=O)c3ccncc3)cc3ccc(Cl)cc32)c(C)c1 [Compound 24, 6-chloro-N-(4-pyridylsulfonyl)-1-[(2,4,6-trimethylphenyl)methyl]indole-2-carboxamide]
23 |  | +++ (“+++” means <3 uM) | CCc1cccc2c1CN(Cc1c(C)cc(C)cc1C)C2C(=O)NS(=O)(=O)c1cccc(N)c1 (stereo not shown) [Compound 30, N-(3-aminophenyl)sulfonyl-4-ethyl-2-[(2,4,6-trimethylphenyl)methyl]isoindoline-1-carboxamide]
24 | 3 to 10 |  | CC(=O)Nc1cccc(Nc2cccc(S(=O)(=O)NC(=O)c3cccnc3N3CC(C)CC3(C)C)n2)c1 (stereo not shown) [Compound 2387, N—[[6-(3-acetamidoanilino)-2-pyridyl]sulfonyl]-2-(2,2,4-trimethylpyrrolidin-1-yl)pyridine-3-carboxamide]
25 |  | ++ (“++” means between 3 uM and 10 uM) | Cc1cc(C)c(Cn2c(C(=O)NS(=O)(=O)c3cccc(N)c3)cc3cc(C#N)ccc32)c(C)c1 [Compound 291, N-(3-aminophenyl)sulfonyl-5-cyano-1-[(2,4,6-trimethylphenyl)methyl]indole-2-carboxamide]
26 |  | +++ (“+++” means <3 uM) | Cc1cc(C)c(Oc2nc(C(C)(C)C)ccc2C(=O)NS(=O)(=O)c2cccc(C(F)F)n2)c(C)c1 [Compound 501, 6-tert-butyl-N-[[6-(difluoromethyl)-2-pyridyl]sulfonyl]-2-(2,4,6-trimethylphenoxy)pyridine-3-carboxamide]
27 | < 3 |  | CC1CN(c2ncccc2C(=O)NS(=O)(=O)c2cccc(OCc3cccc(N(C)C)c3)n2)C(C)(C)C1 (stereo not shown) [Compound 2012, N—[[6-[[3-(dimethylamino)phenyl]methoxy]-2-pyridyl]sulfonyl]-2-(2,2,4-trimethylpyrrolidin-1-yl)pyridine-3-carboxamide]
28 | < 3 |  | CC1CN(c2ncccc2C(=O)NS(=O)(=O)c2cccc(OCc3cccc4c3OCO4)n2)C(C)(C)C1 (stereo not shown) [Compound 2249, N—[[6-(1,3-benzodioxol-4-ylmethoxy)-2-pyridyl]sulfonyl]-2-(2,2,4-trimethylpyrrolidin-1-yl)pyridine-3-carboxamide]
29 | < 3 |  | C[C@@H]1CN(c2nc(-c3cc(F)ccc3F)ccc2C(=O)NS(=O)(=O)c2cccnc2N)C(C)(C)C1 [Compound 2105, N-[(2-amino-3-pyridyl)sulfonyl]-6-(2,5-difluorophenyl)-2-[(4S)-2,2,4-trimethylpyrrolidin-1-yl]pyridine-3-carboxamide]
30 | 3 to 10 |  | CC1CN(c2ncccc2C(=O)NS(=O)(=O)c2cccc(NC3CCN(Cc4ccccc4)C3)n2)C(C)(C)C1 (stereo not shown) [Compound 2407, N—[[6-[(1-benzylpyrrolidin-3-yl)amino]-2-pyridyl]sulfonyl]-2-(2,2,4-trimethylpyrrolidin-1-yl)pyridine-3-carboxamide]
31 | 3 to 10 |  | COc1cccc(-c2ccc(C(=O)NS(=O)(=O)N3CC[C@H](N)C3)c(N3C[C@@H](C)CC3(C)C)n2)c1 [Compound 2240, N-[(3S)-3-aminopyrrolidin-1-yl]sulfonyl-6-(3-methoxyphenyl)-2-[(4S)-2,2,4-trimethylpyrrolidin-1-yl]pyridine-3-carboxamide]
